# Marks after values point to notes of the source that are not given here.
# Key:
# [1] = Weekly body weight of SHR rats; type: in vivo, rat
# Description: (§1) 2.1 Grouping and administration of animals: 112 SHR rats (the female and male SHR rats are half and half, and the female rats are not pregnant) with the body weight of 200-250 g are taken, the rats are enabled to adapt to a laboratory for a period of 5 d, blood pressure is measured once at a day to enable the rats to adapt to the environment and detect stimulation. Then, weighing and numbering are carried out, and the SHR rats are equally divided into 14 groups randomly (each group comprises 8 rats), i.e., an SHR rat model control group, a positive control group (captopril, 27 mg/kg), a BZ large-dose group (120 mg/kg/d), a BZ small-dose group (60 mg/kg/d), a BA large-dose group (120 mg/kg/d), a BA small-dose group (60 mg/kg/d), a BL large-dose group (120 mg/kg/d), a BL small-dose group (60 mg/kg/d), a BM large-dose group (120 mg/kg/d), a BM small-dose group (60 mg/kg/d), a BD large-dose group (120 mg/kg/d), a BD small-dose group (60 mg/kg/d), a GB large-dose group (120 mg/kg/d) and a GB small-dose group (60 mg/kg/d). In addition, 8 healthy Wistar rats are taken as a normal control group. Intragastric administration is performed on the rats of each drug group separately according to the above-mentioned doses by 1 mL/100 g body weight, intragastric administration is performed on the rats of the normal control group and the rats of the SHR rat model control group with an equal volume of distilled water, and administration is performed continuously for 8 weeks.
# (§2) 2.2 General state: during observation, conditions such as mind, water drinking, food intake, bowel movement, hair color, body weight and range of motion of rats are observed. Irritable degrees of the rats are divided into III levels: a level I means that the rats are free of obvious response when necks of the rats are seized; a level II means that the rats scream and startle when the necks of the rats are seized; and a level III means that the rats bite or rats of same cages frequently fight when the necks of the rats are seized.
# (§3) 3.1 Influence on general state of spontaneously hypertensive rats: the rats of the normal control group are normal in food intake, drinking and motion conditions, sensitive in response, healthy and glossy in hair color, good in mental state and free of any unusual response; the rats of the SHR model group gradually present that back hair is fluffy, clustered and dim, the appetite is reduced, the body weight is reduced, the mind is dispirited and irritable, and the rats are prone to the behaviors of intense resisting, attacking and so on during administration and blood pressure detection, and irritable degrees are mostly changed to a level II and a level III from a level I; and after single administration of ginkgolide B and derivatives thereof, behavioral general state observations of rats of each group are free of obvious difference from those of the model control group.
# [2] = Weekly food intake of SHR rats; type: in vivo, rat
# Description: as §1, §2, §3
# [3] = test system: spontaneously hypertensive rats (SHR); assay: Caudal artery systolic pressure of spontaneously hypertensive rats, 8 weeks of continuous medication; type: in vivo, rat; conditions: x ± s, n = 8
# Description: as §1
# (§4) 2.3 Blood pressure measuring: caudal artery systolic pressure of rats is measured with a Bp-6 noninvasive blood pressure measuring system. Under the condition that the rats are calm, the systolic pressure is continuously measured for 3 times, and the average value of the measured systolic pressure is taken as a pressure measuring result. Observation indexes: (1) single-administration pressure lowering effect: blood pressure of the rats is measured before administration and blood pressure conditions are measured 30 min, 60 min, 90 min and 120 min after first administration; and (2) continuous-administration pressure lowering condition: blood pressure is separately measured 30 min after administration at 1 d, 7 d, 13 d, 19 d, 25 d, 35 d, 49 d and 56 d, the blood pressure is repeatedly measured for 3 times at a day, and the average value of obtained values is taken as a final blood pressure value.
# [4] = test system: spontaneously hypertensive rats (SHR); assay: Caudal artery systolic pressure of spontaneously hypertensive rats, single administration; type: in vivo, rat; conditions: x ± s, n = 8
# Description: as §1, §4
# [5] = Water solubility test; conditions: purified water, thermodynamic from solid
# Description: Measuring method: samples are ground to obtain fine powder, target compounds are quantitatively weighed, the weighed compounds are added into purified water, and the solubility of the compounds is investigated by ultrasonics.
# [6] = 60 mg/kg/d intragastric, week 0
# [7] = 60 mg/kg/d intragastric, week 1
# [8] = 60 mg/kg/d intragastric, week 2
# [9] = 60 mg/kg/d intragastric, week 3
# [10] = 60 mg/kg/d intragastric, week 4
# [11] = 60 mg/kg/d intragastric, week 5
# [12] = 60 mg/kg/d intragastric, week 6
# [13] = 60 mg/kg/d intragastric, week 7
# [14] = 60 mg/kg/d intragastric, week 8
# [15] = 120 mg/kg/d intragastric, week 0
# [16] = 120 mg/kg/d intragastric, week 1
# [17] = 120 mg/kg/d intragastric, week 2
# [18] = 120 mg/kg/d intragastric, week 3
# [19] = 120 mg/kg/d intragastric, week 4
# [20] = 120 mg/kg/d intragastric, week 5
# [21] = 120 mg/kg/d intragastric, week 6
# [22] = 120 mg/kg/d intragastric, week 7
# [23] = 120 mg/kg/d intragastric, week 8
smiles,measurement,setting,value
CC(=O)Oc1ccccc1C(=O)O[C@H]1C(=O)O[C@H]2O[C@]34C(=O)OC5C[C@@H](C(C)(C)C)C21[C@@]53[C@@H](O)[C@@H]1OC(=O)[C@@H](C)[C@@]14O (some centres unmarked) [BA],Body weight,[1]; [6],228.5 g
same,Body weight,[1]; [7],233.6 g
same,Body weight,[1]; [8],244.8^▴ g
same,Body weight,[1]; [9],251.4 g
same,Body weight,[1]; [10],257.3 g
same,Body weight,[1]; [11],263.7^▴ g
same,Body weight,[1]; [12],269.6^▴ g
same,Body weight,[1]; [13],281.8^▴▴ g
same,Body weight,[1]; [14],292.8^▴▴ g
same,Body weight,[1]; [15],231.6 g
same,Body weight,[1]; [16],251.4^▴▴ g
same,Body weight,[1]; [17],257.6^▴▴ g
same,Body weight,[1]; [18],264.1^▴▴ g
same,Body weight,[1]; [19],271.2^▴▴ g
same,Body weight,[1]; [20],280.6^▴▴ g
same,Body weight,[1]; [21],291.2^▴▴ g
same,Body weight,[1]; [22],305.9^▴▴ g
same,Body weight,[1]; [23],320.4^▴▴ g
same,Average dairy food intake,[2]; [6],17.9 g/day
same,Average dairy food intake,[2]; [7],18.6^▴ g/d
same,Average dairy food intake,[2]; [8],19.8^▴ g/d
same,Average dairy food intake,[2]; [9],19.6^▴ g/d
same,Average dairy food intake,[2]; [10],18.9^▴ g/d
same,Average dairy food intake,[2]; [11],20.7^▴▴ g/d
same,Average dairy food intake,[2]; [12],22.3^▴▴ g/d
same,Average dairy food intake,[2]; [13],24.6^▴▴ g/d
same,Average dairy food intake,[2]; [14],25.5^▴▴ g/d
same,Average dairy food intake,[2]; [15],18.1 g/day
same,Average dairy food intake,[2]; [16],19.8^▴ g/d
same,Average dairy food intake,[2]; [17],20.1^▴▴ g/d
same,Average dairy food intake,[2]; [18],20.8^▴▴ g/d
same,Average dairy food intake,[2]; [19],21.6^▴▴ g/d
same,Average dairy food intake,[2]; [20],23.0^▴▴ g/d
same,Average dairy food intake,[2]; [21],24.5^▴▴ g/d
same,Average dairy food intake,[2]; [22],25.9^▴▴ g/d
same,Average dairy food intake,[2]; [23],27.8^▴▴ g/d
same,Systolic pressure,"[3]; 60 mg/kg/d intragastric continuous, 1 d, 30 min after administration",155.29 ± 10.98 mmHg
same,Systolic pressure,"[3]; 60 mg/kg/d intragastric continuous, 7 d, 30 min after administration",158.73 ± 13.82 mmHg
same,Systolic pressure,"[3]; 60 mg/kg/d intragastric continuous, 13 d, 30 min after administration",153.64 ± 9.75 mmHg
same,Systolic pressure,"[3]; 60 mg/kg/d intragastric continuous, 19 d, 30 min after administration",154.85 ± 9.74 mmHg
same,Systolic pressure,"[3]; 60 mg/kg/d intragastric continuous, 25 d, 30 min after administration",151.36 ± 10.58 mmHg
same,Systolic pressure,"[3]; 60 mg/kg/d intragastric continuous, 35 d, 30 min after administration",153.72 ± 13.68 mmHg
same,Systolic pressure,"[3]; 60 mg/kg/d intragastric continuous, 49 d, 30 min after administration",151.70 ± 13.10 mmHg
same,Systolic pressure,"[3]; 60 mg/kg/d intragastric continuous, 56 d, 30 min after administration",153.72 ± 12.54 mmHg
same,Systolic pressure,"[3]; 60 mg/kg/d intragastric continuous, before administration",165.35 ± 11.62 mmHg
same,Systolic pressure,"[3]; 120 mg/kg/d intragastric continuous, 1 d, 30 min after administration",151.48 ± 9.85 mmHg
same,Systolic pressure,"[3]; 120 mg/kg/d intragastric continuous, 7 d, 30 min after administration",150.95 ± 9.68 mmHg
same,Systolic pressure,"[3]; 120 mg/kg/d intragastric continuous, 13 d, 30 min after administration",145.30 ± 11.62 mmHg
same,Systolic pressure,"[3]; 120 mg/kg/d intragastric continuous, 19 d, 30 min after administration",142.39 ± 12.49 mmHg
same,Systolic pressure,"[3]; 120 mg/kg/d intragastric continuous, 25 d, 30 min after administration",145.84 ± 11.46 mmHg
same,Systolic pressure,"[3]; 120 mg/kg/d intragastric continuous, 35 d, 30 min after administration",143.67 ± 115.62 mmHg
same,Systolic pressure,"[3]; 120 mg/kg/d intragastric continuous, 49 d, 30 min after administration",140.69 ± 14.72 mmHg
same,Systolic pressure,"[3]; 120 mg/kg/d intragastric continuous, 56 d, 30 min after administration",139.88 ± 13.04 mmHg
same,Systolic pressure,"[3]; 120 mg/kg/d intragastric continuous, before administration",163.64 ± 10.31 mmHg
same,Systolic pressure,"[4]; 60 mg/kg intragastric single administration, 30 min",161.36 ± 9.52 mmHg
same,Systolic pressure,"[4]; 60 mg/kg intragastric single administration, 60 min",159.62 ± 14.25 mmHg
same,Systolic pressure,"[4]; 60 mg/kg intragastric single administration, 90 min",152.56 ± 11.26 mmHg
same,Systolic pressure,"[4]; 60 mg/kg intragastric single administration, 120 min",159.87 ± 11.32 mmHg
same,Systolic pressure,"[4]; 60 mg/kg intragastric single administration, before administration",165.35 ± 11.62 mmHg
same,Systolic pressure,"[4]; 120 mg/kg intragastric single administration, 30 min",149.69 ± 11.62 mmHg
same,Systolic pressure,"[4]; 120 mg/kg intragastric single administration, 60 min",155.68 ± 17.35 mmHg
same,Systolic pressure,"[4]; 120 mg/kg intragastric single administration, 90 min",161.30 ± 15.64 mmHg
same,Systolic pressure,"[4]; 120 mg/kg intragastric single administration, 120 min",158.25 ± 15.61 mmHg
same,Systolic pressure,"[4]; 120 mg/kg intragastric single administration, before administration",163.64 ± 10.31 mmHg
same,solubility,[5],220 µg/mL

# — patent US10875874B2, “Ginkgolide B derivative and preparation method and use thereof” (Chengdu Baiyu Ginkgolide Pharmaceuticals Co., Ltd., priority 2015, dated 2020)
